The text below walks through data of US12485134B2, “Use of nicotinamide riboside, nicotinic acid riboside, reduced nicotinyl riboside compounds, and nicotinyl riboside compound derivatives in formulations” (ChromaDex Inc., priority 2019, dated 2025).

One assay has as its target Albumin (Bos taurus, UniProt P02769). Description: NR-Cl binding to individual whey proteins (cutoff filter method). Particulars: 1 mmol/L each of protein and NR-Cl. The method, then:
(§1) A. Solutions of hydrolyzed whey protein isolate (>90% protein, 2-7% degree of hydrolysis) were prepared at varying concentrations and filtered through 0.2 μm sterile filters. An aliquot of sterile nicotinamide riboside chloride (“NR-Cl,” a salt of NR, I) in water solution was spiked into the sterile whey solutions, targeting a final NR-Cl concentration of 1 mmol per liter (0.3 mg/mL). The solutions containing the mixture of hydrolyzed whey and NR-Cl were filtered through 10 kDa molecular weight cutoff centrifuge filters to remove the whey proteins (14-80 kDa) and any NR-Cl that was bound to the proteins. Any NR-Cl that was not bound to the whey proteins was recovered in the filtrate and quantitated by HPLC.
(§2) The solutions were prepared with 1 mmol/L each of protein and NR-Cl. NR-Cl binding to one or more of these individual proteins could be responsible for the enhanced stability of NR-Cl seen in hydrolyzed whey protein isolate.

For a further assay, the target named is T1, Beta-lactoglobulin (Bos taurus, UniProt P02754).
T1 sequence (P02754 17-178): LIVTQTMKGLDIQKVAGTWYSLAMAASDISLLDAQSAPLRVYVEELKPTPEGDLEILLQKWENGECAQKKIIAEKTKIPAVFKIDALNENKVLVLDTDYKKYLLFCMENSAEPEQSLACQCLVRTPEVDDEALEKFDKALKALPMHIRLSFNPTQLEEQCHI
The description is as above. Particulars: 1 mmol/L each of protein and NR-Cl. The method, then: as §1, §2

Molecules are shown by their SMILES.

Chain of Albumin (P02769 25-607): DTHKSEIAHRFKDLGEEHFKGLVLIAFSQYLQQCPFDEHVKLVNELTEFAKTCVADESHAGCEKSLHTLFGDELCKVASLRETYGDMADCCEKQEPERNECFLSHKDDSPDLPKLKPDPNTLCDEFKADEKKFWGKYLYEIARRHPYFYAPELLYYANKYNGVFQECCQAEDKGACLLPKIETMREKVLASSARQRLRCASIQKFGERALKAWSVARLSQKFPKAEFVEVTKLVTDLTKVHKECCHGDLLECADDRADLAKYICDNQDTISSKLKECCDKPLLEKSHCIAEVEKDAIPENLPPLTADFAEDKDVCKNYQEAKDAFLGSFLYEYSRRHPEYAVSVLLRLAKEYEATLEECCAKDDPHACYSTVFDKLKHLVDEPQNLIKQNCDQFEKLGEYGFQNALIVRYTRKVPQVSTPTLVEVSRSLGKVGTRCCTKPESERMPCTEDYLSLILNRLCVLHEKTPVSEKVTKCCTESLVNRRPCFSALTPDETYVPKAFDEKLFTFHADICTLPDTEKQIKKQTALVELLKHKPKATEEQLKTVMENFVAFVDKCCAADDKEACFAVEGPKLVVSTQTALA

With `NC(=O)c1ccc[n+]([C@@H]2O[C@H](CO)[C@@H](O)[C@H]2O)c1.[Cl-]` [NR-Cl, nicotinamide riboside chloride], the “% NR-Cl Bound to Protein” value at Albumin is recorded as 47%; at Beta-lactoglobulin it was 66%.
